According to patent publication US8822754B2, “Ecdysone receptor-based inducible gene expression system” (Intrexon Corporation, priority 2000, dated 2014):

System: CfEcR/RXR-based switch
Assay: Luciferase reporter assay of truncated CfEcR and MmRXR receptor pairs in NIH3T3 cells (Example 2)
Format: cell-based, Choristoneura fumiferana
Details: NIH3T3 cells, 0, 1, 5 or 25 uM ligand, 48 hr; FIGS. 11-14
Method: Briefly, polynucleotides encoding EcR or RXR receptors were truncated at the junctions of A/B, C, D, E and F domains and fused to either a GAL4 DNA binding domain encoding polynucleotide (SEQ ID NO: 41) for CfEcR, or a VP16 activation domain encoding polynucleotide (SEQ ID NO: 45) for MmRXR as described in Example 1. The resulting receptor truncation/fusion polypeptides were assayed in NIH3T3 cells. Plasmid pFRLUC (Stratagene) encoding a luciferase polypeptide was used as a reporter gene construct and pTKRL (Promega) encoding a Renilla luciferase polypeptide under the control of the constitutive TK promoter was used to normalize the transfections as described above. The analysis was performed in triplicates and mean luciferase counts were determined as described above.
Gene expression cassettes comprising polynucleotides encoding either full length or truncated CfEcR polypeptides fused to a GALA. […] The cells were harvested, lysed and luciferase reporter activity was measured in the cell lysates. […]

CCc1c(OC)cccc1C(=O)NN(C(=O)c1cc(C)cc(C)c1)C(C)(C)C [N-(2-ethyl-3-methoxybenzoyl)-N′-(3,5-dimethylbenzoyl)-N′-tert-butylhydrazine]
sensitivity of the EcR/RXR switch to the ligand: much more sensitive
